In US20220348558A1, “INHIBITORS OF ENCEPHALITIC ALPHAVIRUSES” (priority 2019, published 2022) one finds EC50 data, which are given here for 20 molecules.

In one test the test system is WEEV California. The test can be described thus: microbe, parasite or virus in culture. To be noted: Western equine encephalitis virus, Vero 76, 48 h, read-out: WEEV California EC50 nM. It is filed as cell-based.
For another test, the system named is VEEV TC83. Put plainly: microbe, parasite or virus in culture. The class given is cell-based. To be noted: Venezuelan equine encephalitis virus, Vero 76, 48 h, read-out: VEEV TC83 EC50 nM.

What is called EC50 is the concentration that produces a half-maximal response.

For `COc1ccc(-n2c([C@@H]3CC(=O)CN3)nc3c(-c4ccc(C)nc4)cc(C#N)cc3c2=O)cc1F` [Example 185, (S)-3-(3-fluoro-4-methoxyphenyl)-8-(6-methylpyridin-3-yl)-4-oxo-2-(4-oxopyrrolidin-2-yl)-3,4-dihydroquinazoline-6-carbonitrile], the EC50 in the test on WEEV California is greater than 1000 nM; in the test with VEEV TC83, 151 to 500 nM.
Turning to `O=c1c2cc([N+](=O)[O-])ccc2nc(C2CCCN2)n1-c1cccc(F)c1` (stereo not shown) [Example 40, 3-(3-fluorophenyl)-6-nitro-2-(pyrrolidin-2-yl)quinazolin-4 (3H)-one], the EC50 with WEEV California was in the range of 501 to 1000 nM; in the test with VEEV TC83, 1 to 50 nM.
With `CNCc1nc2ccc([N+](=O)[O-])cc2c(=O)n1-c1ccc(OC)cc1` [Example 210, 3-(4-methoxyphenyl)-2-((methylamino)methyl)-6-nitroquinazolin-4 (3H)-one], the EC50 in the test with WEEV California and with VEEV TC83 was greater than 1000 nM in each case.
Consider `COc1ccc(-n2c([C@H]3CCCN3)nc3c(C(F)(F)F)cc(C#N)cc3c2=O)cc1` [Example 74, (R)-3-(4-methoxyphenyl)-4-oxo-2-(pyrrolidin-2-yl)-8-(trifluoromethyl)-3,4-dihydroquinazoline-6-carbonitrile], for which the EC50 in the test with WEEV California and in the test with VEEV TC83 was 1 to 50 nM throughout.
As to `COc1ccc(-n2c([C@@]3(C)CCCN3)nc3c(-c4ccc(C)nc4)cc(C#N)cc3c2=O)cc1F` [Example 141, (R)-3-(3-fluoro-4-methoxyphenyl)-8-(6-methylpyridin-3-yl)-2-(2-methylpyrrolidin-2-yl)-4-oxo-3,4-dihydroquinazoline-6-carbonitrile], the EC50 with WEEV California and in the test with VEEV TC83 was 1 to 50 nM in each case.
As for `COc1c(F)cc(-n2c(C3CCCNC3)nc3c(-c4ccc(C)nc4)cc(C#N)cc3c2=O)cc1F` (stereo not shown) [Example 189, 3-(3,5-difluoro-4-methoxyphenyl)-8-(6-methylpyridin-3-yl)-4-oxo-2-(piperidin-3-yl)-3,4-dihydroquinazoline-6-carbonitrile], the EC50 in the test on WEEV California and in the test on VEEV TC83 was 51 to 150 nM throughout.
Regarding `COc1ccc(-n2c([C@@H]3C[C@@H]4CCCC[C@@H]4N3)nc3c(-c4ccc(C)nc4)cc(C#N)cc3c2=O)cc1F` [Example 139, 3-(3-fluoro-4-methoxyphenyl)-8-(6-methylpyridin-3-yl)-2-((2S,3aS,7aS)-octahydro-1H-indol-2-yl)-4-oxo-3,4-dihydroquinazoline-6-carbonitrile], the EC50 lay in the range of 51 to 150 nM with WEEV California and 1 to 50 nM in the test on VEEV TC83.
Regarding `COc1ccc(-n2c([C@@H]3CCCN3)nc3ccc(C#N)cc3c2=O)cc1` [Example 15, (S)-3-(4-methoxyphenyl)-4-oxo-2-(pyrrolidin-2-yl)-3,4-dihydroquinazoline-6-carbonitrile], the EC50 was in the range of 501 to 1000 nM in the test on WEEV California and 51 to 150 nM in the test with VEEV TC83.
Turning to `CNC(C)c1nc2ccc([N+](=O)[O-])cc2c(=O)n1-c1ccc(OC)cc1` (stereo not shown) [Example 205, 3-(4-methoxyphenyl)-2-(1-(methylamino)ethyl)-6-nitroquinazolin-4 (3H)-one], the EC50 with WEEV California and with VEEV TC83 was 51 to 150 nM throughout.
Take `COc1ccc(-n2c([C@H]3CCCN3)nc3c(-c4cncnc4)cc(C#N)cc3c2=O)cc1F` [Example 105, (R)-3-(3-fluoro-4-methoxyphenyl)-4-oxo-8-(pyrimidin-5-yl)-2-(pyrrolidin-2-yl)-3,4-dihydroquinazoline-6-carbonitrile]: the EC50 in the test on WEEV California is 151 to 500 nM; in the test on VEEV TC83, 51 to 150 nM.
With `COc1ccc(-n2c(C3CCCN3)nc3c(-c4ccc(N5CCCC5)nc4)cc(C#N)cc3c2=O)cc1F` (stereo not shown) [Example 127, 3-(3-fluoro-4-methoxyphenyl)-4-oxo-8-(6-(pyrrolidin-1-yl)pyridin-3-yl)-2-(pyrrolidin-2-yl)-3,4-dihydroquinazoline-6-carbonitrile], the EC50 with WEEV California was in the range of 51 to 150 nM; in the test on VEEV TC83, 1 to 50 nM.
On to `COc1c(F)cc(-n2c(C34CC(CN3)C4)nc3c(-c4cnc(C)c(C)c4)cc(C#N)cc3c2=O)cc1F` [Example 176, 2-(2-azabicyclo[2.1.1]hexan-1-yl)-3-(3,5-difluoro-4-methoxyphenyl)-8-(5,6-dimethylpyridin-3-yl)-4-oxo-3,4-dihydroquinazoline-6-carbonitrile], for which the EC50 with WEEV California and with VEEV TC83 was 1 to 50 nM in each case.
In the case of `Cc1ccc(-c2cc(C#N)cc3c(=O)n(-c4ccc(O)c(F)c4)c([C@H]4CCCN4)nc23)cn1` [Example 167, (R)-3-(3-fluoro-4-hydroxyphenyl)-8-(6-methylpyridin-3-yl)-4-oxo-2-(pyrrolidin-2-yl)-3,4-dihydroquinazoline-6-carbonitrile], the EC50 lay in the range of 151 to 500 nM in the test with WEEV California and 51 to 150 nM with VEEV TC83.
For `COc1ccc(-n2c([C@H]3CCNC3)nc3c(C)cc([N+](=O)[O-])cc3c2=O)cc1F` [Example 65, (S)-3-(3-fluoro-4-methoxyphenyl)-8-methyl-6-nitro-2-(pyrrolidin-3-yl) quinazolin-4 (3H)-one] the same measures were 51 to 150 nM and 51 to 150 nM.
With `COc1ccc(-n2c([C@H]3CCCN3C)nc3c(C)cc([N+](=O)[O-])cc3c2=O)cc1F` [Example 71, (R)-3-(3-fluoro-4-methoxyphenyl)-8-methyl-2-(1-methylpyrrolidin-2-yl)-6-nitroquinazolin-4 (3H)-one], the EC50 in the test with WEEV California and in the test on VEEV TC83 was 51 to 150 nM in each case.
In the case of `COc1ccc(-n2c(-c3cncn3C)nc3c(-c4ccc(C)nc4)cc(C#N)cc3c2=O)cc1F` [Example 201, 3-(3-fluoro-4-methoxyphenyl)-2-(1-methyl-1H-imidazol-5-yl)-8-(6-methylpyridin-3-yl)-4-oxo-3,4-dihydroquinazoline-6-carbonitrile], the EC50 in the test with WEEV California and in the test on VEEV TC83 was greater than 1000 nM each time.
Take `COc1ccc(-n2c([C@@H]3CCCN3)nc3c(C(F)(F)F)cc(C#N)cc3c2=O)cc1` [Example 75, (S)-3-(4-methoxyphenyl)-4-oxo-2-(pyrrolidin-2-yl)-8-(trifluoromethyl)-3,4-dihydroquinazoline-6-carbonitrile]: the EC50 with WEEV California and with VEEV TC83 was 51 to 150 nM in each case.
Regarding `COc1ccc(-n2c(C3CCCN3Cc3ccc(F)cc3)nc3c(C)cc([N+](=O)[O-])cc3c2=O)cc1F` (stereo not shown) [Example 204, 3-(3-fluoro-4-methoxyphenyl)-2-(1-(4-fluorobenzyl)pyrrolidin-2-yl)-8-methyl-6-nitroquinazolin-4 (3H)-one], the EC50 in the test with WEEV California fell in the range of 151 to 500 nM; in the test on VEEV TC83, 51 to 150 nM.
For `COc1ccc(-n2c([C@H]3CCCN3)nc3c(-c4cncnc4)cc([N+](=O)[O-])cc3c2=O)cc1` [Example 87, (R)-3-(4-methoxyphenyl)-6-nitro-8-(pyrimidin-5-yl)-2-(pyrrolidin-2-yl) quinazolin-4 (3H)-one] the same measures were 1 to 50 nM and 1 to 50 nM.
For the molecule `COc1ccc(-n2c([C@H]3CCCN3)nc3cc([N+](=O)[O-])ccc3c2=O)cc1` [Example 48, (R)-3-(4-methoxyphenyl)-7-nitro-2-(pyrrolidin-2-yl)quinazolin-4 (3H)-one], the EC50 with WEEV California and in the test with VEEV TC83 was greater than 1000 nM throughout.
